No end group written: not given here.
How the values were obtained:
Assay in all cases: biochemical
Format in all cases: binding
A*6801 = A*6801 (Homo sapiens, UniProt P04439, A269V/D185E/E176V/E277Q/E87N/F33Y/G231S/I121M/I166T/I218V/L180W/L300P/L318F/N151K/P208A/P217A/Q86R/R169H/T345S)
A*3301 = A*3301 (Homo sapiens, UniProt P04439, A270S/D185E/E176V/E277Q/E87N/F33T/G231S/H175R/I121M/I218V/I322F/K168Q/K210R/L300P/L318F/M331R/P217A/Q86R/Q94H/R138Q/T323A/T345S/T97I/V358M/Y195H)
A31 (A*3101) = A31 (A*3101) (Homo sapiens, UniProt P04439, A270S/D185E/E176V/E277Q/F33T/G231S/G80R/H175R/I121M/I218V/I322F/K168Q/L300P/L318F/M331R/P217A/Q94H/R138Q/T323A/T345S/T97I/V358M)
HLA-A3.2 (A*0301) = HLA-A3.2 (A*0301) (Homo sapiens, UniProt P04439)
HLA-A11 (A*1101) = HLA-A11 (A*1101) (Homo sapiens, UniProt P04439, A114D/D185E/E176A/F33Y/L180Q/S129P/T187R)

| Sequence | IC50 (A*6801) [nM] | IC50 (A*3301) [nM] | IC50 (A31 (A*3101)) [nM] | IC50 (HLA-A3.2 (A*0301)) [nM] | IC50 (HLA-A11 (A*1101)) [nM] |
| --- | --- | --- | --- | --- | --- |
| AFADLTVVYR [Peptide 78.0058] | 39 | 249 | 140 | > 20000 |  |
| AFKDLFVVYK [Peptide 88.0024] | 576 | 93 | 32 | 3260 |  |
| AFTDLTIVYR [Peptide 78.0052] | 210 | 817 | 810 | > 20000 |  |
| AILGHIVSPR [Peptide 9017.0225] | 92 | 74 | 4.6 | 14 |  |
| ATNCTNKQR [Peptide 1589.20] |  | 13000 | 51 | 1830 |  |
| DSNAQAFLK [Peptide 88.0379] | 39 | 20 | > 20000 | > 20000 |  |
| EFTAFLVAFK [Peptide 88.0193] | 980 | 127 |  | 7480 |  |
| EVHIPLGDAR [Peptide 9017.0217] | 9.5 |  | 9920 | 9390 |  |
| GQGVSIEWRK [Peptide 9017.0219] | 2210 | > 20000 | 8010 | 15000 |  |
| GQWIQSRCEK [Peptide 88.0166] | > 20000 | 4920 |  | 320 |  |
| GVRRATTSTK [Peptide 88.0210] | 18300 | > 20000 | 3630 | 6.1 |  |
| HLFGYSFYK [Peptide 76.0190] |  | 33 | 27 | 5.4 |  |
| ILTAFNSSHK [Peptide 1589.03] | 6390 | > 20000 |  | 12 |  |
| IMCLRFLSK [Peptide 1571.12] | 12900 | 2620 | 2300 | 11 |  |
| KLFLKGVPKK [Peptide 1587.40] | > 20000 | > 20000 | 1040 | 16 |  |
| KMFCQLAR [Peptide 1556.53] | 249 |  | 35 | 22 |  |
| KQLQHTPSPY [Peptide 88.0204] | > 20000 | > 20000 | > 20000 | 117 |  |
| KQRFHNIRGR [Peptide 78.0083] |  | 4440 | 178 | 2040 |  |
| KTLLQQYCLY [Peptide 88.0130] | 7030 | 14400 | 2920 | 206 |  |
| LLCGPANTGK [Peptide 88.0195] | 1900 | > 20000 | 3650 | 137 |  |
| LQGLAQSRYK [Peptide 88.0201] | > 20000 | > 20000 | 4010 | 1100 |  |
| LTALIKPKK [Peptide 9017.0100] | 27 | 1110 | 2480 |  | 71 |
| LTALIKPKKR [Peptide 9017.0231] | 39 | 8720 | 1300 | 6460 |  |
| LTARNVLVK [Peptide 9012.0213] | 52 | > 20000 | > 20000 | 23 |  |

| Sequence | IC50 (A*6801) [nM] | IC50 (A*3301) [nM] | IC50 (A31 (A*3101)) [nM] | IC50 (HLA-A3.2 (A*0301)) [nM] | IC50 (HLA-A11 (A*1101)) [nM] |
| --- | --- | --- | --- | --- | --- |
| LTKMFCQLAK [Peptide 1556.51] | 173 | 12600 | 2380 | 940 |  |
| LTYDSEWQR [Peptide 1589.04] | 14 |  |  | 888 |  |
| LTYISTSQR [Peptide 1589.19] | 0.76 | 79 | 39 | 14 |  |
| LVKHHMYVSK [Peptide 9017.0216] | 17 |  | 347 | 574 |  |
| MLIEPPKLR [Peptide 88.0366] | 12 | 150 | 3160 |  | 2880 |
| MLIQPPKLR [Peptide 88.0340] | 25 | 146 | 699 | 16200 |  |
| MTLESILRR [Peptide 9012.0215] | 15 | 94 | 243 |  | 14 |
| MVVLLLVRYK [Peptide 1587.04] | 720 | 4480 |  | 2630 |  |
| NTKANILYK [Peptide 88.0358] | 100 | 693 |  | 2120 |  |
| NTMHYTNWK [Peptide 1589.16] | 11 | 402 | 4920 |  | 11 |
| NTNAGTDPR [Peptide 88.0372] | 50 | 418 | 7020 | 1120 |  |
| NVCVSWKYK [Peptide 88.0383] | 628 | 2460 | 265 |  | 927 |
| PVRPQVPLR [Peptide 66.0063] |  |  |  | > 20000 |  |
| QVNCKGIYY [Peptide 88.0408] | > 20000 | > 20000 | > 20000 |  | 1620 |
| RAHSSHLR [Peptide 1556.71] | 1720 |  | 40 | 1910 |  |
| RFHNIAGHYR [Peptide 78.0097] | 151 | 99 | 11 | 2460 |  |
| RFLSKISEYR [Peptide 1571.13] | 17 | 20 | 14 | 1800 |  |
| RILSTCLGR [Peptide 9017.0073] | 1450 | 1450 | 8.5 | 58 |  |
| RLCDHIDYWK [Peptide 1589.11] | 17100 | > 20000 | 1630 | 457 |  |
| RQLFLNTVK [Peptide 1589.44] | 16200 | > 20000 | 87 |  | 39 |
| RQQFLKTVK [Peptide 1589.33] | > 20000 |  | 45 | 1320 |  |
| RVHSSHLKSKK [Peptide 1556.75] | 2150 | 12000 | 300 |  | 20 |
| SFFSRTWCK [Peptide 88.0363] | 66 | 4 | 12 |  | 16 |
| SQACALYWFR [Peptide 88.0192] | 85 |  | 42 | 4660 |  |

| Sequence | IC50 (A*6801) [nM] | IC50 (A*3301) [nM] | IC50 (A31 (A*3101)) [nM] | IC50 (HLA-A3.2 (A*0301)) [nM] | IC50 (HLA-A11 (A*1101)) [nM] |
| --- | --- | --- | --- | --- | --- |
| SQISYWQLIR [Peptide 88.0220] | 934 | > 20000 |  | 2610 |  |
| SSLARRHMAR [Peptide 9017.0193] | 869 | 190 | 4.8 |  | 928 |
| STTETADPK [Peptide 88.0441] | 74 | > 20000 | 3580 |  | 17 |
| SVCMGGMNR [Peptide 1556.60] |  | 78 | 92 | 157 |  |
| SVFQNLQVIK [Peptide 9012.0231] | 16 | 6220 | 3560 |  | 11 |
| TFPNPFPFDK [Peptide 88.0162] | 1110 | 1830 | 2260 |  | 221 |
| TIVYIEYRK [Peptide 9017.0118] | 18 |  | 13700 | 8830 |  |
| TLSAELPK [Peptide 1556.24] | > 20000 | > 20000 | > 20000 |  | 102 |
| TLTYISTSQR [Peptide 88.0211] | 56 | 1010 | 688 |  | 8270 |
| TSNECTNNK [Peptide 1589.31] |  | > 20000 | 8910 | 4790 |  |
| TTLEKLTNK [Peptide 78.0283] | 2560 | 469 | 598 |  | 42 |
| TVTVSAELPK [Peptide 1556.16] |  | > 20000 | > 20000 | 3430 |  |
| VLCTYSPALNK [Peptide 1556.36] | 14700 | > 20000 | 4800 |  | 150 |
| VLMWKFDSR [Peptide 9017.0066] | 516 | 63 | 72 |  | 883 |
| VQFKSECEK [Peptide 88.0419] | > 20000 | 4770 | 2680 |  | 20 |
| VQVYFDGNK [Peptide 88.0399] |  | > 20000 | > 20000 | 2050 |  |
| VTVYDGVPVWK [Peptide 1539.09] | 362 | > 20000 | 18300 |  | 19 |
| VTVYYGVPVRR [Peptide 1525.07] | 32 | 795 | 59 |  | 271 |
| WFYVQAIVDK [Peptide 88.0140] | 19500 | > 20000 | > 20000 |  | 12900 |
| WLSEPQKCFK [Peptide 88.0236] |  | 617 | 2340 | 1690 |  |
| YLTAPTGCLK [Peptide 1589.15] | 2560 | > 20000 | > 20000 |  | 573 |
| YSVYGTTLEK [Peptide 78.0054] | 36 | > 20000 | > 20000 |  | 100 |
